Legend:
Assay in all cases: Zone of inhibition screen, 96 well agar array format
Assay type in all cases: cell-based
Design in all cases: scale not given here
S. aureus (ATCC 29213) = tested on: S. aureus (ATCC 29213)
Procedure, shortened: (§1)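 Panel screening of every compound against several bacterial strains, among them E. faecium ATCC 49624, was done in a 96-well agar array.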

[1] = tested on: S. epidermidis (ATCC 12228)
Procedure, shortened: as §1

E. faecalis (CL 4877) = tested on: E. faecalis (CL 4877)
Procedure, shortened: as §1

[2] = zone of inhibition relative to 1 mg/ml stock solution of p-chlorobiphenylvancomycin
[3] = zone of inhibition relative to 1 mg/ml p-chlorobiphenylvancomycin

| Compound | zone score, S. aureus ATCC 29213 (S. aureus (ATCC 29213); [2]) | zone score, S. epidermidis ATCC 12228 [1, 2] | zone score, E. faecalis CL 4877 (E. faecalis (CL 4877); [2]) | zone score, S. aureus ATCC 29213 (S. aureus (ATCC 29213); [3]) | zone score, S. epidermidis ATCC 12228 [1, 3] | zone score, E. faecalis CL 4877 (E. faecalis (CL 4877); [3]) |
| --- | --- | --- | --- | --- | --- | --- |
| CC(=O)N1CCCC1C(=O)NC1C(=O)NC(CC(N)=O)C(=O)NC2C(=O)NC3C(=O)NC(C(=O)NC(C(=O)O)c4cc(O)cc(O)c4-c4cc3ccc4O)C(O)c3ccc(c(Cl)c3)Oc3cc2cc(c3OC2OC(CO)C(O)C(O)C2OC2CC(C)(NCc3ccc(-c4ccc(Cl)cc4)cc3)C(O)C(C)O2)Oc2ccc(cc2Cl)C1O (stereo not drawn) [Compound 116] | 2 | 2 | 2 | – | – | – |
| Cc1oncc1C(=O)NC1C(=O)NC(CC(N)=O)C(=O)NC2C(=O)NC3C(=O)NC(C(=O)NC(C(=O)O)c4cc(O)cc(O)c4-c4cc3ccc4O)C(O)c3ccc(c(Cl)c3)Oc3cc2cc(c3OC2OC(CO)C(O)C(O)C2OC2CC(C)(NCc3ccc(-c4ccc(Cl)cc4)cc3)C(O)C(C)O2)Oc2ccc(cc2Cl)C1O (stereo not drawn) [Compound 275] | – | – | – | 2 | 2 | 2 |
| CSCCC(NC=O)C(=O)NC1C(=O)NC(CC(N)=O)C(=O)NC2C(=O)NC3C(=O)NC(C(=O)NC(C(=O)O)c4cc(O)cc(O)c4-c4cc3ccc4O)C(O)c3ccc(c(Cl)c3)Oc3cc2cc(c3OC2OC(CO)C(O)C(O)C2OC2CC(C)(NCc3ccc(-c4ccc(Cl)cc4)cc3)C(O)C(C)O2)Oc2ccc(cc2Cl)C1O (mixture of isomers) [Compound 326] | – | – | – | 2 | 2 | 2 |
| CC(NC(N)=O)C(=O)NC1C(=O)NC(CC(N)=O)C(=O)NC2C(=O)NC3C(=O)NC(C(=O)NC(C(=O)O)c4cc(O)cc(O)c4-c4cc3ccc4O)C(O)c3ccc(c(Cl)c3)Oc3cc2cc(c3OC2OC(CO)C(O)C(O)C2OC2CC(C)(NCc3ccc(-c4ccc(Cl)cc4)cc3)C(O)C(C)O2)Oc2ccc(cc2Cl)C1O (mixture of isomers) [Compound 206] | – | – | – | 2 | 2 | 2 |
| CC1OC(OC2C(Oc3c4cc5cc3Oc3ccc(cc3Cl)C(O)C3NC(=O)C(NC(=O)C5NC(=O)C(CC(N)=O)NC(=O)C(NC(=O)c5ccc(S(N)(=O)=O)cc5)C(O)c5ccc(c(Cl)c5)O4)c4ccc(O)c(c4)-c4c(O)cc(O)cc4C(C(=O)O)NC3=O)OC(CO)C(O)C2O)CC(C)(NCc2ccc(-c3ccc(Cl)cc3)cc2)C1O (stereo not drawn) [Compound 269] | – | – | – | 2 | 2 | 2 |
| CC(=O)N1CCC[C@H]1C(=O)N[C@H]1C(=O)N[C@@H](CC(N)=O)C(=O)N[C@H]2C(=O)NC3C(=O)N[C@H](C(=O)N[C@@H](C(=O)O)c4cc(O)cc(O)c4-c4cc3ccc4O)[C@H](O)c3ccc(c(Cl)c3)Oc3cc2cc(c3OC2OC(CO)C(O)C(O)C2OC2CC(C)(NCc3ccc(-c4ccc(Cl)cc4)cc3)C(O)C(C)O2)Oc2ccc(cc2Cl)[C@H]1O (stereo partly drawn) [Compound 183] | 2 | 2 | 2 | – | – | – |
| CC(=O)N[C@@H](Cc1c[nH]cn1)C(=O)N[C@H]1C(=O)N[C@@H](CC(N)=O)C(=O)N[C@H]2C(=O)NC3C(=O)N[C@H](C(=O)N[C@@H](C(=O)O)c4cc(O)cc(O)c4-c4cc3ccc4O)[C@H](O)c3ccc(c(Cl)c3)Oc3cc2cc(c3OC2OC(CO)C(O)C(O)C2OC2CC(C)(NCc3ccc(-c4ccc(Cl)cc4)cc3)C(O)C(C)O2)Oc2ccc(cc2Cl)[C@H]1O (stereo partly drawn) [Compound 181] | 2 | 2 | 2 | – | – | – |
| CC1OC(OC2C(Oc3c4cc5cc3Oc3ccc(cc3Cl)C(O)C3NC(=O)C(NC(=O)C5NC(=O)C(CC(N)=O)NC(=O)C(NC(=O)c5ccccc5SCCS(=O)(=O)c5ccc(Cl)cc5)C(O)c5ccc(c(Cl)c5)O4)c4ccc(O)c(c4)-c4c(O)cc(O)cc4C(C(=O)O)NC3=O)OC(CO)C(O)C2O)CC(C)(NCc2ccc(-c3ccc(Cl)cc3)cc2)C1O (stereo not drawn) [Compound 301] | – | – | – | 2 | 2 | 2 |
| CC1OC(OC2C(Oc3c4cc5cc3Oc3ccc(cc3Cl)C(O)C3NC(=O)C(NC(=O)C5NC(=O)C(CC(N)=O)NC(=O)C(NC(=O)CO)C(O)c5ccc(c(Cl)c5)O4)c4ccc(O)c(c4)-c4c(O)cc(O)cc4C(C(=O)O)NC3=O)OC(CO)C(O)C2O)CC(C)(NCc2ccc(-c3ccc(Cl)cc3)cc2)C1O (stereo not drawn) [Compound 158] | 2 | 2 | 2 | – | – | – |
| COc1cc(OC)c(CNC(=O)CCC(N)C(=O)NC2C(=O)NC(CC(N)=O)C(=O)NC3C(=O)NC4C(=O)NC(C(=O)NC(C(=O)O)c5cc(O)cc(O)c5-c5cc4ccc5O)C(O)c4ccc(c(Cl)c4)Oc4cc3cc(c4OC3OC(CO)C(O)C(O)C3OC3CC(C)(NCc4ccc(-c5ccc(Cl)cc5)cc4)C(O)C(C)O3)Oc3ccc(cc3Cl)C2O)c(OC)c1 (stereo not drawn) [Compound 66] | 2 | 2 | 2 | – | – | – |
| CC1OC(OC2C(Oc3c4cc5cc3Oc3ccc(cc3Cl)C(O)C3NC(=O)C(NC(=O)C5NC(=O)C(CC(N)=O)NC(=O)C(NC(=O)CNC(=O)CNC(=O)CCNC(=O)OCc5ccccc5)C(O)c5ccc(c(Cl)c5)O4)c4ccc(O)c(c4)-c4c(O)cc(O)cc4C(C(=O)O)NC3=O)OC(CO)C(O)C2O)CC(C)(NCc2ccc(-c3ccc(Cl)cc3)cc2)C1O (stereo not drawn) [Compound 210] | – | – | – | 2 | 2 | 2 |
| CC(=O)NC(Cc1cnc[nH]1)C(=O)NC1C(=O)NC(CC(N)=O)C(=O)NC2C(=O)NC3C(=O)NC(C(=O)NC(C(=O)O)c4cc(O)cc(O)c4-c4cc3ccc4O)C(O)c3ccc(c(Cl)c3)Oc3cc2cc(c3OC2OC(CO)C(O)C(O)C2OC2CC(C)(NCc3ccc(-c4ccc(Cl)cc4)cc3)C(O)C(C)O2)Oc2ccc(cc2Cl)C1O (mixture of isomers) [Compound 324] | – | – | – | 2 | 2 | 2 |
| CC1OC(OC2C(Oc3c4cc5cc3Oc3ccc(cc3Cl)C(O)C3NC(=O)C(NC(=O)C5NC(=O)C(CC(N)=O)NC(=O)C(NC(=O)c5ccc(F)cc5)C(O)c5ccc(c(Cl)c5)O4)c4ccc(O)c(c4)-c4c(O)cc(O)cc4C(C(=O)O)NC3=O)OC(CO)C(O)C2O)CC(C)(NCc2ccc(-c3ccc(Cl)cc3)cc2)C1O (stereo not drawn) [Compound 270] | – | – | – | 2 | 2 | 2 |
| CC1OC(OC2C(Oc3c4cc5cc3Oc3ccc(cc3Cl)C(O)C3NC(=O)C(NC(=O)C5NC(=O)C(CC(N)=O)NC(=O)C(NC(=O)C(Cc5c[nH]cn5)NC=O)C(O)c5ccc(c(Cl)c5)O4)c4ccc(O)c(c4)-c4c(O)cc(O)cc4C(C(=O)O)NC3=O)OC(CO)C(O)C2O)CC(C)(NCc2ccc(-c3ccc(Cl)cc3)cc2)C1O (stereo not drawn) [Compound 195] | 2 | 2 | 2 | – | – | – |
| COc1cc(OC)c(CNC(=O)CC(N)C(=O)NC2C(=O)NC(CC(N)=O)C(=O)NC3C(=O)NC4C(=O)NC(C(=O)NC(C(=O)O)c5cc(O)cc(O)c5-c5cc4ccc5O)C(O)c4ccc(c(Cl)c4)Oc4cc3cc(c4OC3OC(CO)C(O)C(O)C3OC3CC(C)(NCc4ccc(-c5ccc(Cl)cc5)cc4)C(O)C(C)O3)Oc3ccc(cc3Cl)C2O)c(OC)c1 (stereo not drawn) [Compound 45] | 2 | 2 | 2 | – | – | – |
| CC(N)C(=O)NC(C)C(=O)NC1C(=O)NC(CC(N)=O)C(=O)NC2C(=O)NC3C(=O)NC(C(=O)NC(C(=O)O)c4cc(O)cc(O)c4-c4cc3ccc4O)C(O)c3ccc(c(Cl)c3)Oc3cc2cc(c3OC2OC(CO)C(O)C(O)C2OC2CC(C)(NCc3ccc(-c4ccc(Cl)cc4)cc3)C(O)C(C)O2)Oc2ccc(cc2Cl)C1O (stereo not drawn) [Compound 35] | 2 | 2 | 2 | – | – | – |
| CCC(O)C(=O)NC1C(=O)NC(CC(N)=O)C(=O)NC2C(=O)NC3C(=O)NC(C(=O)NC(C(=O)O)c4cc(O)cc(O)c4-c4cc3ccc4O)C(O)c3ccc(c(Cl)c3)Oc3cc2cc(c3OC2OC(CO)C(O)C(O)C2OC2CC(C)(NCc3ccc(-c4ccc(Cl)cc4)cc3)C(O)C(C)O2)Oc2ccc(cc2Cl)C1O (mixture of isomers) [Compound 286] | – | – | – | 2 | 2 | 2 |
| CC1OC(OC2C(Oc3c4cc5cc3Oc3ccc(cc3Cl)C(O)C3NC(=O)C(NC(=O)C5NC(=O)C(CC(N)=O)NC(=O)C(NC(=O)c5ccc(S(C)(=O)=O)cc5)C(O)c5ccc(c(Cl)c5)O4)c4ccc(O)c(c4)-c4c(O)cc(O)cc4C(C(=O)O)NC3=O)OC(CO)C(O)C2O)CC(C)(NCc2ccc(-c3ccc(Cl)cc3)cc2)C1O (stereo not drawn) [Compound 264] | – | – | – | 2 | 2 | 0 |
| CC1OC(OC2C(Oc3c4cc5cc3Oc3ccc(cc3Cl)C(O)C3NC(=O)C(NC(=O)C5NC(=O)C(CC(N)=O)NC(=O)C(NC(=O)C(CCC(N)=O)NC(=O)CNC(=O)OCc5ccccc5)C(O)c5ccc(c(Cl)c5)O4)c4ccc(O)c(c4)-c4c(O)cc(O)cc4C(C(=O)O)NC3=O)OC(CO)C(O)C2O)CC(C)(NCc2ccc(-c3ccc(Cl)cc3)cc2)C1O (stereo not drawn) [Compound 212] | – | – | – | 2 | 2 | 2 |
